The test system of the assay is FOG of α-DG on the cell surfaces. Nature of the assay: Cell-based HTS/HCS assay, IIH6 antibody as probe (EC1.5). To be noted: concentration of the compound required to enhance the FOG of α-DG by 50% over the controls; cell-based assays in vitro. The text has this:
Protein glycosylation is a multiple-step process that requires a large number of proteins in the secretory pathway of the cells. Thus we chose cell-based assay because our goal is to identify enhancer the FOG of α-DG on the cell surfaces. The assay system is HTS/HCS friendly and can adapt to various cell lines including myotubes as well as various readout methods including AlphaScreen, fluorescence density and HCS/fluorescence imaging. The standard operation protocol (SOP) for adhesion cells is described below and the FIG. 1 illustrates the assay process using myoblasts as the controls and screening cells and the IIH6 antibody as the probe. Other adhesion cells such CHO (Chinese hamster ovary) cell line can be implemented into this assay by simply removing the differentiation step.
Cell cultures: All cells are cultured at 37° C., 5% CO2, in appropriate media (F-12 for epithelial cells and DMEM for myoblasts) supplement with 10-20% fetal calf serum (FCS) and 1% antibiotics. […] The cells will be detached with trypsin EDTA and suspended in the cell culture media. The cells will be counted and seeded into the multiple-well plates as desired. Myotubes formation: When the myoblasts reach confluence, change the growth media to differential media (DEME with 2% horse serum) and incubate for 4-5 days.
The cells were fixed, permeablized, and then blocked with 10% BSA in PBS for 1 hour. […] After washing the cells with PBS for 2 times, the DAPI was used to stain the cells for 15 mins and wash 3 times with PBS. The images were captured with an inverted Olympus fluorescent microscope. For small compound localization experiment, the cells are incubated with the biotin conjugated compounds and then the cells were washed and incubated with streptavidin-Dye and then images will be captured to see the location of the compound-target-protein.
H, EC1.5<5 μM; M, EC1.5-20 μM; L, EC1.5 20-50 μM; VL, EC1.5>50 μM.
As to `CCC(c1nnnn1Cc1cccs1)N1CCN(c2nc3ccc(C(=O)OC)cc3s2)CC1` (stereo not drawn) [Compound 31, methyl 2-(4-(1-(1-(thiophen-2-ylmethyl)-1H-tetrazol-5-yl)propyl)piperazin-1-yl)benzothiazole-6-carboxylate], the “Activity (EC1.5)” value is given as “L (EC1.5 20-50 μM)”.
In the case of `CCC(c1nnnn1Cc1cccs1)N1CCN(c2nc3ccc(OC)cc3s2)CC1` (stereo not drawn) [Compound 14, 6-methoxy-2-(4-(1-(1-(thiophen-2-ylmethyl)-1H-tetrazol-5-yl)propyl)piperazin-1-yl)benzothiazole], the “Activity (EC1.5)” value is “M (EC1.5-20 μM)”.
On to `CCC(c1nnnn1Cc1cncs1)N1CCN(c2nc3cccc(F)c3s2)CC1` (stereo not drawn) [Compound 42, 7-fluoro-2-(4-(1-(1-(thiazol-5-ylmethyl)-1H-tetrazol-5-yl)propyl)piperazin-1-yl)benzothiazole], for which the “Activity (EC1.5)” value is “L (EC1.5 20-50 μM)”.
Turning to `CCC(c1nnnn1Cc1cccs1)N1CCN(c2nc3cc(N)c(N)cc3s2)CC1` (stereo not drawn) [Compound 54, 5,6-diamino-2-(4-(1-(1-(thiophen-2-ylmethyl)-1H-tetrazol-5-yl)propyl)piperazin-1-yl)benzothiazole], the “Activity (EC1.5)” value is listed as “H (EC1.5<5 μM)”.
Regarding `c1csc(Cn2nncc2CN2CCN(c3nc4ccccc4s3)CC2)c1` [Compound 1, 2-(4-((1-(thiophen-2-ylmethyl)-1H-1,2,3-triazol-5-yl)methyl)piperazin-1-yl)benzothiazole], the “Activity (EC1.5)” value is reported as “L (EC1.5 20-50 μM)”.
The same measure for `CCC(c1nnnn1CCc1ccns1)N1CCN(c2nc3cc(N)cc(F)c3s2)CC1` (stereo not drawn) [Compound 74, 5-amino-7-fluoro-2-(4-(1-(1-(isothiazol-5-ylethyl)-1H-tetrazol-5-yl)propyl)piperazin-1-yl)benzothiazole]: “H (EC1.5<5 μM)”.
Turning to `CCC(c1nnnn1Cc1cccs1)N1CCN(c2nc3cccc(C(F)(F)F)c3s2)CC1` (stereo not drawn) [Compound 26, 2-(4-(1-(1-(thiophen-2-ylmethyl)-1H-tetrazol-5-yl)propyl)piperazin-1-yl)-7-(trifluoramethyl)benzothiazole], the “Activity (EC1.5)” value is reported as “L (EC1.5 20-50 μM)”.
Consider `O=C(c1nnnn1Cc1cccs1)N1CCN(c2nc3cccc(F)c3s2)CC1` [Compound 33, (4-(7-fluorobenzothiazol-2-yl)piperazin-1-yl)(1-(thiophen-2-ylmethyl)-1H-tetrazol-5-yl)methanone], for which the “Activity (EC1.5)” value is on record as “L (EC1.5 20-50 μM)”.
Turning to `CCC(c1nnnn1CCc1cccs1)N1CCN(C2Sc3c(F)cc(N)cc3N2C)CC1` (stereo not drawn) [Compound 63, 5-amino-7-fluoro-3-methyl-2-(4-(1-(1-(thiophen-2-ylethyl)-1H-tetrazol-5-yl)propyl)piperazin-1-yl)benzothiazole], the “Activity (EC1.5)” value is on record as “H (EC1.5<5 μM)”.
Turning to `CCC(C(=O)NCc1cccs1)c1ccc(-c2nc3ccccc3s2)cc1` (stereo not drawn) [Compound 38, 2-(4-(benzothiazol-2yl)phenyl)-N-(thiophen-2-ylmethyl)butanamide], the “Activity (EC1.5)” value is on record as “M (EC1.5-20 μM)”.
For `CCC(NCCNc1nc2cccc(F)c2s1)c1nnnn1Cc1cccs1` (stereo not drawn) [Compound 27, N^1-(7-fluorobenzothiazol-2-yl)-N^2-(1-(1-(thiophen-2-ylmethyl)-1H-tetrazol-5-yl)propyl)ethane-1,2-diamine], the “Activity (EC1.5)” value is given as “M (EC1.5-20 μM)”.
Take `CC(c1nnnn1Cc1cccs1)N1CCN(c2nc3ccccc3s2)CC1` (stereo not drawn) [Compound 3, 2-(4-(1-(1-(thiophen-2-ylmethyl)-1H-tetrazol-5-yl)ethyl)piperazin-1-yl)benzothiazole]: the “Activity (EC1.5)” value is listed as “M (EC1.5-20 μM)”.
Take `CCC(c1nnnn1Cc1ccc([N+](=O)[O-])s1)N1CCN(c2nc3cc(N)cc(F)c3s2)CC1` (stereo not drawn) [Compound 58, 5-amino-7-fluoro-2-(4-(1-(1-(5-nitro-thiophen-2-ylmethyl)-1H-tetrazol-5-yl)propyl)piperazin-1-yl)benzothiazole]: the “Activity (EC1.5)” value was “H (EC1.5<5 μM)”.
`CCC(c1nnnn1Cc1cccs1)N1CCN(c2nc3c(N)cccc3s2)CC1` (stereo not drawn) [Compound 23, 4-aminn-2-(4-(1-(1-(thiophen-2-ylmethyl) 1H-tetrazol-5-yl)propyl)piperazin-1-yl)benzothiazole]: the “Activity (EC1.5)” value is “M (EC1.5-20 μM)”.
`CCC(c1nnnn1Cc1cccs1)N1CCN(c2nc3cc(N)ccc3s2)CC1` (stereo not drawn) [Compound 29, 5-amino-2-(4-(1-(1-(thiophen-2-ylmpthyl)-1H-tetrazol-5-yl)propyl)piperazin-1-yl)benzothiazole]: the “Activity (EC1.5)” value is listed as “H (EC1.5<5 μM)”.
The same measure for `CCC(c1nnnn1Cc1ccc(F)s1)N1CCN(c2nc3cc(N)cc(F)c3s2)C(C)C1` (stereo not drawn) [Compound 59, 5-amino-7-fluoro-2-(4-(1-(1-(5-fluoro-thiophen-2-ylmethyl)-1H-tetrazol-5-yl)propyl)-2-methyl-piperazin-1-yl)benzothiazole]: “H (EC1.5<5 μM)”.
The value for `CCC(c1nnnn1Cc1ccc(C)s1)N1CCN(c2nc3cc(N)cc(F)c3s2)CC1` (stereo not drawn) [Compound 56, 5-amino-7-fluoro-2-(4-(1-(1-(5-methyl-thiophen-2-ylmethyl)-1H-tetrazol-5-yl)propyl)piperazin-1-yl)benzothiazole] was “H (EC1.5<5 μM)”; that for `CCC(c1nnnn1CCc1cccs1)N1CCCN(c2nc3cc(N)cc(F)c3s2)CC1` (stereo not drawn) [Compound 75, 5-amino-7-fluoro-2-(4-(1-(1-(thiophen-2-ylethyl)-1H-tetrazol-5-yl)propyl)1,4-diazepane-1-yl)benzothiazole] was “H (EC1.5<5 μM)”; that for `CCC(c1nnnn1Cc1cccs1)N1CCN(c2nc3cc(F)ccc3s2)CC1` (stereo not drawn) [Compound 25, 5-fluoro-2-(4-(1-(1-(thiophen-2-ylmethyl)-1H-tetrazol-5-yl)propyl)piperazin-1-yl)benzothiazole] was “L (EC1.5 20-50 μM)”.
The value for `CCC(c1nnnn1Cc1cccs1)N1CCN(c2nc3cccnc3s2)CC1` (stereo not drawn) [Compound 24, 2-(4-(1-(1-(thiophen-2-ylmethyl)-1H-tetrazol-5-yl)propyl)piperazin-1-yl)thiazolo[5,4-b]pyridine] was “M (EC1.5-20 μM)”; that for `CCC(c1nnnn1CCc1cccs1)N1CCN(c2nc3cccc(F)c3s2)CC1` (stereo not drawn) [Compound 41, 7-fluoro-2-(4-(1-(1-(2-(thiophen-2-yl)ethyl)-1H-tetrazol-5-yl)propyl)piperazin-1-yl)benzothiazole] was “L (EC1.5 20-50 μM)”; that for `CCC(c1nnnn1Cc1cccs1)N1CCN(c2nc3c(F)cc(F)cc3s2)CC1` (stereo not drawn) [Compound 44, 4,6-difluoro-2-(4-(1-(1-(thiophen-2-ylmethyl)-1H-tetrazol-5-yl)propyl)piperazin-1-yl)benzothiazole] was “M (EC1.5-20 μM)”.
Consider `CCC(c1nnnn1CCc1cccs1)N1CCN(c2nc3cc(N)cc(F)c3s2)CC1[N+](=O)[O-]` (stereo not drawn) [Compound 64, 5-amino-7-fluoro-2-(4-(1-(1-(thiophen-2-ylethyl)-1H-tetrazol-5-yl)propyl)-3-nitro-piperazin-1-yl)benzothiazole], for which the “Activity (EC1.5)” value is “H (EC1.5<5 μM)”.
The value for `CCC(c1nnnn1CCc1cccs1)N1CCN(c2nc3cc(N)cc(F)c3s2)C([N+](=O)[O-])C1` (stereo not drawn) [Compound 67, 5-amino-7-fluoro-2-(4-(1-(1-(thiophen-2-ylethyl)-1H.tetrazol-5-yl)propyl)-2-nitro-piperazin-1-yl)benzothiazole] was “H (EC1.5<5 μM)”; that for `CCC(C(=S)NCc1cccs1)c1ccc(-c2nc3ccccc3s2)cc1` (stereo not drawn) [Compound 39, 2-(4-(benzothiazol-2-yl)phenyl)-N-(thiophen-2-ylmethyl)butanethioamide] was “M (EC1.5-20 μM)”; that for `CCC(c1nnnn1Cc1cccs1)N1CCN(c2nc3c([N+](=O)[O-])cccc3s2)CC1` (stereo not drawn) [Compound 22, 4-nitro-2-(4-(1-(1-(thiophen-2-ylmethyl)-1H-tetrazol-5-yl)propyl)piperazin-1-yl)benzothiazole] was “L (EC1.5 20-50 μM)”.
The value for `CCC(c1nnnn1CCc1cccs1)N1CCN(c2nc3cc(N)cc(F)c3s2)CC1` (stereo not drawn) [Compound 55, 5-amino-7-fluoro-2-(4-(1-(1-(thiophen-2-ylethyl)-1H-tetrazol-5-yl)propyl)piperazin-1-yl)benzothiazole] was “H (EC1.5<5 μM)”.
For `CCC(c1nnnn1Cc1cccs1)C1CCCC(c2nc3cc(N)cc(F)c3s2)CC1` (stereo not drawn) [Compound 68, 5-amino-7-fluoro-2-(4-(1-(1-(thiophen-2-ylmethyl)-1H-tetrazol-5-yl)propyl)cycloheptyl)benzothiazole], the “Activity (EC1.5)” value is recorded as “H (EC1.5<5 μM)”.
Consider `CCC(c1nnnn1Cc1cccs1)N1CCN(c2nc3ccc(N)c(F)c3s2)CC1` (stereo not drawn) [Compound 49, 6-amino-7-fluoro-2-(4-(1-(1-(thiophen-2-ylmethyl)-1H-tetrazol-5-yl)propyl)piperazin-1-yl)benzothiazole], for which the “Activity (EC1.5)” value is “H (EC1.5<5 μM)”.
The same measure for `CCC(c1ccc(-c2nc3ccccc3s2)cc1)c1nnnn1Cc1cccs1` (stereo not drawn) [Compound 40, 2-(4-(1-(1-(thiophen-2-ylmethyl)-1H-tetrazol-5-yl)propyl)phenyl)benzothiazole]: “M (EC1.5-20 μM)”.

The record behind these values is US10221168B1, “Small-compound enhancers for functional O-mannosylation of alpha-dystroglycan, and uses thereof” (priority 2015, dated 2019).
